# Experimental data published in patent US12187754B2, “LpxC inhibitors and uses thereof” (Blacksmith Medicines, Inc., priority 2021, dated 2025).
# How the values were obtained:
# E. coli UTI 89 = experiment: Mouse urinary tract infection model, E. coli UTI 89; format: in vivo; conditions: for Bladder Terminal Burden / Kidney Terminal Burden / Urine Terminal Burden: mice, 96 h post infection; for bacterial burden in urine relative to vehicle-treated controls / bacterial burden in bladder relative to vehicle-treated controls / bacterial burden in kidney relative to vehicle-treated control / efficacy on bacterial burden in kidney: E. coli UTI 89, mice; for bacterial burden in bladder relative to vehicle-treated controls / bacterial burden in kidney relative to vehicle-treated control: IV administration; for efficacy on bacterial burden in kidney: PO administration
# Experimental: (§1) Compound A and its prodrugs as disclosed herein were tested in an in vivo mouse model for Urinary Tract Infection. Briefly, mice were infected with E. coli UTI 89 to cause a UTI infection and were treated with compounds disclosed herein.
# (§2) Five days prior to infection, C3H/HeNR female mice were preconditioned with drinking water containing 5% glucose. Mice were rendered unconscious using parenteral anaesthesia (ketamine/medetomidine) then 0.05 mL of a bacterial suspension of E. coli UTI 89 (1.2×10^9 CFU/mL (6.2×10^7 CFU/mouse) was administered transurethrally into the bladder to cause an ascending UTI infection.
# IV or PO treatment was started 24 h post infection with 3, 10, 15 mg/kg/dose IV Compound A; 3, 10, 15.30 mg/kg/dose IV Compound 1; 3, and 10 mg/kg/dose IV Compound 2; and 30 mg/kg/dose oral of either Compound 1 or 2 administered every 12 hours for 3 days (six doses total). Ciprofloxacin was given as a control at 10 mg/kg/dose IV every 12 hours. Compound A was formulated in 10% DMSO, 5% Cremophor, 85% SFI; the remaining compounds used a sterile phosphate-buffered saline (PBS) formulation. Each group was comprised of five mice each.
# (§3) Urine, bladder, and kidney were harvested at 24 h (pre-treatment group only) and 96 h post infection and quantitatively cultured.
# K. pneumoniae BAA-1705 = experiment: Mouse urinary tract infection model, K. pneumoniae BAA-1705; format: in vivo; conditions: for Bladder Terminal Burden / Kidney Terminal Burden / Urine Terminal Burden: mice, 96 hours; for bacterial burden in urine relative to vehicle-treated controls and the ciprofloxacin control: except for the 30 mg/kg IV Compound A experiment
# Experimental: as §1, §2
# […]; […]; […]; […] for 3 days (six doses total). Ciprofloxacin was given as a control at 10 mg/kg/dose IV every 12 hours. Compound A was formulated in 10% DMSO, 5% Cremophor, 85% SFI; the remaining compounds used a sterile phosphate-buffered saline (PBS) formulation. Each group was comprised of five mice each.
# as §3
# The experiment was repeated using K. pneumoniae BAA-1705 (MDR; MIC90 strain). Table 5 and FIG. 2 summarize the results, showing the average terminal burden of K. pneumoniae BAA-1705 in urine, bladder, and kidney at the conclusion of the study (96 hours).
# Kinetic solubility = format: physicochemical
# Experimental: Solubility of the compounds was assessed in 10 mM phosphate-buffered saline (PBS) at pH 7 at final concentrations of 20, 40, and 50 mg/mL of test compound.
# Pharmacokinetics in dogs = format: in vivo; conditions: beagle, plasma, intravenous, oral; after 6 h, all routes and doses tested in dog; read-out: plasma concentration of prodrug Compound 1
# Experimental: (§4) Stock solutions of test compounds were prepared at 2.5 or 5.0 mg/mL in 10 mM PBS. Male Sprague-Dawley (SD) rats (n=3 per group) or beagle dogs (n=3 per group) were administered test compound by either IV or oral administration. For IV-administered compounds, a three hour infusion was used. For PO-administered compounds, a single bolus dose was used.
# (§5) After initiation of IV dosing (or after PO bolus dosing), whole blood samples were collected at 1, 3, 3.5, 4, 6, 8, and 24 hour timepoints. All samples were collected into Plasma K2-EDTA collection tubes and processed to separate plasma from red blood cells.
# (§6) Liquid chromatography-tandem mass spectrometry (LC-MS/MS) was used to analyze all plasma samples, with both the test compound and the active agent Compound A being quantified. The lower limit of quantitation (LLOQ) for both rats and dogs was 1 ng/mL.
# Thermal solubility = format: physicochemical; conditions: aqueous buffer, thermodynamic from solid; 100 mM potassium phosphate buffer pH 7.4, 24 h, 25° C.
# Experimental: Solubility of the compounds was assessed in 100 mM potassium phosphate buffer at pH 7.4 after 24 hours at room temperature.
# Accurately weighed K2HPO4 (2.79 g) and KH2PO4 (0.54 g) were dissolved in 90 mL of Milli-Q water and mixed well. Volume was made upto 200 mL with Milli-Q water and mixed well. The prepared phosphate buffer was stored at 2-8° C. and used within a month.
# Approximately 30 mg of test compound was added to approximately 1 mL of the potassium phosphate buffer, pH 7.4. If the visual inspection indicated precipitation, no further compound is added. If the visual inspection indicated a clear solution, further increments of compound were added until the solution was no longer clear.
# Test compounds and assay controls (caffeine) were further incubated for 24 h at 25° C. temperature on a thermomixer at a shaking speed of 1200 rpm. After incubation, the samples (200 μL) were transferred to a filtration plate to which a plate was attached at bottom for collecting the filtrate. The plate was centrifuged at 4000 rpm for 2 min and the filtrate was collected in the attached bottom plate. The filtrates were diluted using filtered buffer based on the initial amount of compound added. All samples were analysed by HPLC-UV method against 8 point calibration curve with concentrations ranging from 2.5 μg/mL to 1000 μg/mL.
# Pharmacokinetics in rats = format: in vivo, Male Sprague-Dawley (SD) rats; conditions: male, Sprague-Dawley, plasma, intravenous, oral; after 4 h, all routes and doses tested in rat; read-out: plasma concentration of prodrug Compound 1
# Experimental: as §4, §5, §6
# [1] = 10 mg/kg/dose IV every 12 hours for 3 days
# [2] = 20, 40, and 50 mg/mL in 10 mM PBS pH 7
# [3] = 3 mg/kg/dose IV every 12 hours for 3 days
# [4] = 15 mg/kg/dose IV every 12 hours for 3 days
# [5] = 30 mg/kg/dose PO every 12 hours for 3 days
SMILES,Bladder Terminal Burden (E. coli UTI 89; [1]),Kidney Terminal Burden (E. coli UTI 89; [1]),Urine Terminal Burden (E. coli UTI 89; [1]),appearance after vortex mixing (Kinetic solubility; [2]),Bladder Terminal Burden (E. coli UTI 89; [3]),Kidney Terminal Burden (E. coli UTI 89; [3]),Urine Terminal Burden (E. coli UTI 89; [3]),Bladder Terminal Burden (E. coli UTI 89; [5]),Kidney Terminal Burden (E. coli UTI 89; [5]),Urine Terminal Burden (E. coli UTI 89; [5]),bacterial burden in urine relative to vehicle-treated controls (E. coli UTI 89),bacterial burden in bladder relative to vehicle-treated controls (E. coli UTI 89),bacterial burden in kidney relative to vehicle-treated control (E. coli UTI 89),efficacy on bacterial burden in kidney (E. coli UTI 89),solubility at 24 h (Thermal solubility) [µg/mL],"bacterial burden in kidney relative to vehicle-treated controls and the ciprofloxacin control (K. pneumoniae BAA-1705; K. pneumoniae BAA-1705, mice)","bacterial burden in urine relative to vehicle-treated controls and the ciprofloxacin control (K. pneumoniae BAA-1705; K. pneumoniae BAA-1705, mice)",other results
"O=C(O)c1cn(C2CC2)c2cc(N3CCNCC3)c(F)cc2c1=O [Ciprofloxacin, reference compound]",2.85 × 10^5 CFU/mL,1.88 × 10^2 CFU/mL,5.07 × 10^2 CFU/mL,,,,,,,,,,,,,,,Bladder Terminal Burden (K. pneumoniae BAA-1705; 10 mg/kg/dose IV): 2.27 × 10^1 CFU/mL; Kidney Terminal Burden (K. pneumoniae BAA-1705; 10 mg/kg/dose IV): 1.88 × 10^3 CFU/mL; Urine Terminal Burden (K. pneumoniae BAA-1705; 10 mg/kg/dose IV): 1.78 × 10^2 CFU/mL; Bladder Terminal Burden (K. pneumoniae BAA-1705; 10 mg/kg/dose PO): 4.05 × 10^2 CFU/mL; Kidney Terminal Burden (K. pneumoniae BAA-1705; 10 mg/kg/dose PO): 2.59 × 10^4 CFU/mL; Urine Terminal Burden (K. pneumoniae BAA-1705; 10 mg/kg/dose PO): 9.71 × 10^2 CFU/mL
"N#CC1CN(C[C@@H](Cc2nc[nH]c(=O)c2OP(=O)(O)O)c2ccc(C#Cc3ccc(CN4CCOCC4)cc3)cc2)C1 [Compound 1, (S)-4-(3-(3-cyanoazetidin-1-yl)-2-(4-((4-(morpholinomethyl)phenyl)ethynyl)phenyl)propyl)-6-oxo-1,6-dihydropyrimidin-5-yl dihydrogen phosphate]",5.05 × 10^5 CFU/mL,5.24 × 10^2 CFU/mL,9.40 × 10^3 CFU/mL,clear solutions,2.64 × 10^6 CFU/mL,4.74 × 10^4 CFU/mL,2.93 × 10^5 CFU/mL,1.81 × 10^5 CFU/mL,4.04 × 10^2 CFU/mL,8.73 × 10^3 CFU/mL,statistically significant reductions in bacterial burden in urine,reductions in bacterial burden in bladder,statistically significant reductions in bacterial burden in kidney,efficacious,≥ 3000,statistically significant reductions in bacterial burden in kidney,statistically significant reductions in bacterial burden in urine,"solubility after storage (Kinetic solubility; 20, 40, and 50 mg/mL in 10 mM PBS pH 7, storage at 4° C. for 20 hours): remained soluble; Bladder Terminal Burden (E. coli UTI 89; [4]): 9.57 × 10^4 CFU/mL; Kidney Terminal Burden (E. coli UTI 89; [4]): 1.28 × 10^2 CFU/mL; Urine Terminal Burden (E. coli UTI 89; [4]): 3.59 × 10^3 CFU/mL; concentration at 6 h (Pharmacokinetics in dogs): < 100 ng/mL; Bladder Terminal Burden (K. pneumoniae BAA-1705; 11.5 mg/kg/dose IV): BLoD; Kidney Terminal Burden (K. pneumoniae BAA-1705; 11.5 mg/kg/dose IV): 1.72 × 10^1 CFU/mL; Urine Terminal Burden (K. pneumoniae BAA-1705; 11.5 mg/kg/dose IV): 2.15 × 10^1 CFU/mL; Bladder Terminal Burden (K. pneumoniae BAA-1705; 35 mg/kg/dose IV): BLoD; Kidney Terminal Burden (K. pneumoniae BAA-1705; 35 mg/kg/dose IV): BLoD; Urine Terminal Burden (K. pneumoniae BAA-1705; 35 mg/kg/dose IV): BLoD; Bladder Terminal Burden (K. pneumoniae BAA-1705; 69.5 mg/kg/dose IV): 4.58 × 10^0 CFU/mL; Kidney Terminal Burden (K. pneumoniae BAA-1705; 69.5 mg/kg/dose IV): BLoD; Urine Terminal Burden (K. pneumoniae BAA-1705; 69.5 mg/kg/dose IV): BLoD; Bladder Terminal Burden (K. pneumoniae BAA-1705; 104.5 mg/kg/dose PO): BLoD; Kidney Terminal Burden (K. pneumoniae BAA-1705; 104.5 mg/kg/dose PO): BLoD; Urine Terminal Burden (K. pneumoniae BAA-1705; 104.5 mg/kg/dose PO): 2.51 × 10^0 CFU/mL; bacterial loads in kidney (K. pneumoniae BAA-1705; K. pneumoniae BAA-1705, mice, all routes of administration): below the limit of detection; concentration at 4 h (Pharmacokinetics in rats): < 100 ng/mL"
"N#CC1CN(C[C@@H](Cc2nc[nH]c(=O)c2OCOP(=O)(O)O)c2ccc(C#Cc3ccc(CN4CCOCC4)cc3)cc2)C1 [Compound 2, (S)-((4-(3-(3-cyanoazetidin-1-yl)-2-(4-((4-(morpholinomethyl)phenyl)ethynyl)phenyl)propyl)-6-oxo-1,6-dihydropyrimidin-5-yl)oxy)methyl dihydrogen phosphate]",1.17 × 10^6 CFU/mL,9.67 × 10^2 CFU/mL,2.73 × 10^4 CFU/mL,milky suspensions,5.15 × 10^5 CFU/mL,2.52 × 10^3 CFU/mL,4.69 × 10^4 CFU/mL,2.82 × 10^5 CFU/mL,3.81 × 10^2 CFU/mL,3.41 × 10^3 CFU/mL,statistically significant reductions in bacterial burden in urine,reductions in bacterial burden in bladder,statistically significant reductions in bacterial burden in kidney,efficacious,≥ 3000,statistically significant reductions in bacterial burden in kidney,statistically significant reductions in bacterial burden in urine,"appearance after sonication (Kinetic solubility; 20, 40, and 50 mg/mL in 10 mM PBS, sonication in 40° C. water bath for 30 min): no change in appearance; appearance after treatment with 1M HCL (Kinetic solubility; 20, 40, and 50 mg/mL, final pH of 4, 10 seconds of vortexing): Clear solutions; appearance after addition of 1M NaOH (Kinetic solubility; 20, 40, and 50 mg/mL, final pH of 7, 10 seconds of vortexing): clear solutions"
